The nature of series [1]: Half life in iv dosed dog. The settings on record: in vivo. In kind it is ADME, organism-based, Canis lupus familiaris.
Series [2] can be described thus: Oral bioavailability in rat. It counts as ADME, organism-based. To be noted: in vivo.
A short description of series [3]: Metabolic stability in rat liver microsomes after 10 mins. In kind it is ADME, Microsome. The settings on record: read-out: Stability. In general terms: Liver microsomes are a subcellular fraction often used to study metabolism.
The nature of series [4]: Cmax in dog at 10 mg/kg, po. In kind it is ADME, organism-based, Canis lupus familiaris. More on the design: dose 10 mg/kg, route oral. The settings on record: in vivo.
A short description of series [5]: Cmax in rat at 30 mg/kg, po. In kind it is ADME, organism-based. On the set-up: dose 30 mg/kg, route oral. To be noted: in vivo.
Series [6] in a line: Half life in dog at 10 mg/kg, po. In kind it is ADME, organism-based, Canis lupus familiaris. On the set-up: dose 10 mg/kg, route oral. To be noted: in vivo.
Series [7] in a line: Half life in rat at 30 mg/kg, po. The settings on record: in vivo. It counts as ADME, organism-based. On the set-up: dose 30 mg/kg, route oral.
Series [8] can be described thus: Half life in dog at 1 mg/kg, iv. On the set-up: dose 1 mg/kg, route intravenous. It counts as ADME, organism-based, Canis lupus familiaris. To be noted: in vivo.
The nature of series [9]: Half life in rat at 3 mg/kg, iv. It counts as ADME, organism-based. More on the design: dose 3 mg/kg, route intravenous. To be noted: in vivo.
A short description of series [10]: Clearance in dog at 1 mg/kg, iv. In kind it is ADME, organism-based, Canis lupus familiaris. More on the design: dose 1 mg/kg, route intravenous. To be noted: in vivo.
Series [11] is described as follows: Clearance in rat at 3 mg/kg, iv. In kind it is ADME, organism-based. The settings on record: in vivo. On the set-up: dose 3 mg/kg, route intravenous.
Series [12] is described as follows: Volume of distribution at steady state in dog at 1 mg/kg, iv. In kind it is ADME, organism-based, Canis lupus familiaris. On the set-up: dose 1 mg/kg, route intravenous. The settings on record: in vivo, read-out: Vdss.
Series [13] can be described thus: Bioavailability in rat at 30 mg/kg, po. It counts as ADME, organism-based. To be noted: in vivo.
Series [14] can be described thus: Volume of distribution at steady state in rat at 3 mg/kg, iv. In kind it is ADME, organism-based. More on the design: dose 3 mg/kg, route intravenous. The settings on record: in vivo, read-out: Vdss.
Series [15] in a line: Bioavailability in dog at 10 mg/kg, po. To be noted: in vivo. It counts as ADME, organism-based, Canis lupus familiaris.
A short description of series [16]: Oral bioavailability in dog. In kind it is ADME, organism-based, Canis lupus familiaris. The settings on record: in vivo.
The nature of series [17]: Metabolic stability in dog liver microsomes after 10 mins. In kind it is ADME, Canis lupus familiaris, Microsome. The settings on record: read-out: Stability.
Series [18] in a line: Cmax in rat at 10 mg/kg, po. It counts as ADME, organism-based. To be noted: in vivo. On the set-up: dose 10 mg/kg, route oral.
Series [19] is described as follows: Half life in rat at 2 mg/kg, iv. It counts as ADME, organism-based. More on the design: dose 2 mg/kg, route intravenous. To be noted: in vivo.
A short description of series [20]: Clearance in rat at 2 mg/kg, iv. It counts as ADME, organism-based. To be noted: in vivo. On the set-up: dose 2 mg/kg, route intravenous.
The nature of series [21]: Volume of distribution at steady state in rat at 2 mg/kg, iv. To be noted: in vivo, read-out: Vdss. More on the design: dose 2 mg/kg, route intravenous. In kind it is ADME, organism-based.
Series [22] is described as follows: Bioavailability in rat at 10 mg/kg, po. In kind it is ADME, organism-based. To be noted: in vivo.
A short description of series [23]: Metabolic stability in human liver microsomes after 10 mins. In kind it is ADME, Microsome. To be noted: read-out: Stability.
Series [24] in a line: Cmax in po dosed dog. It counts as ADME, organism-based, Canis lupus familiaris. More on the design: route oral. To be noted: in vivo.

What is called half-life is the time in which the quantity being followed falls by half. Low readings indicate fast loss, high ones slow loss. In general, bioavailability refers to dose-corrected exposure relative to a reference, in per cent. Compound `CCCN(Cc1ccoc1)C(=O)c1cc(C)cc(OCC2(CON=C(N)N)CC2)c1` showed a half-life in series [1] of 4.4 h. This compound also registered a bioavailability in series [2] of 24%.
What is called Cmax is the peak of the concentration-time curve. One may read the clearance as the rate of elimination divided by the concentration. Read a low clearance as inefficient removal. Consider `Cc1ccc(C(F)(F)CNc2ccc(C#N)c(CC(=O)NCCONC(=N)N)c2F)nc1`, for which the remaining at 10 min in series [3] is over 95%. In addition, the Cmax came to 2800 nM in [4] and 250 nM in [5]. Besides, the half-life is 2.5 h in series [6], 2.5 h in [7], 3.6 h in [8] and 1.3 h in series [9]. In addition, the clearance was found to be 18 mL/min/kg in series [10] and 30 mL/min/kg in series [11]. Besides, the Vd came to 3.6 L/kg in series [12] and 2.3 L/kg in series [14]. For the same compound, the bioavailability in series [13] was 2%; in [15], 45%.
`Cc1cccc(S(=O)(=O)Nc2ccc(C)n(CC(=O)NCCONC(=N)N)c2=O)c1`: the bioavailability is 24% in series [16] and 6% in series [2].
Turning to `N#Cc1ccc(NCC(F)(F)c2ccccn2)c(F)c1CC(=O)NCCONC(=N)N`, the remaining at 10 min in series [17] was at least 86%; in series [3] it was over 95%; in series [23], at least 86%. Also, the Cmax in [4] was determined as 3500 nM; in series [18], 30 nM. The results for the half-life in [6], in series [8] and in series [19] were 2.5 h, 2.9 h and 1 h, respectively. The figures for the clearance in series [10] and in series [20] were 13 mL/min/kg and 67 mL/min/kg, respectively. Besides, the Vd was 2.9 L/kg in [12] and 6 L/kg in series [21]. Further, the values for the bioavailability in [15] and in series [22] were 49% and 2%, respectively.
`Cc1nc(N)ccc1CNC(=O)Cc1c(C#N)ccc(NCC(F)(F)c2ccccn2)c1F`: the remaining at 10 min in series [17] was 100%. The same compound came in with a clearance in [10] of 34 mL/min/kg. Besides, the peak level in [24] (Cmax) was 800 nM. The same compound came in with a bioavailability in [15] of 26%. The half-life in series [1] was 1.1 h.
As to `Cc1cccc(C(F)(F)CNc2ccc(C#N)c(CC(=O)NCCONC(=N)N)c2F)n1`, the concentration in series [4] peaked (Cmax) at 3300 nM. In addition, the half-life was 3.2 h in [6] and 2.8 h in [8]. Also, the clearance in series [10] was determined as 15 mL/min/kg. Further, the Vd in series [12] was 2.9 L/kg. This compound registered a bioavailability in series [15] of 65%.

Source of the values: ChEMBL document CHEMBL1145621, “Orally efficacious thrombin inhibitors with cyanofluorophenylacetamide as the P2 motif” (Bioorg Med Chem Lett, 2008).
